Data on 67 compounds can be found in patent US11702417B2, “Compounds for improving mRNA splicing” (The General Hospital Corporation, priority 2015, dated 2023).

This test concerns FD (familial dysautomonia) IKBKAP minigene, exon 20 inclusion, in HEK293T cells. Kind of test: Primary splicing assay (FD IKBKAP minigene, Firefly/Renilla luciferase reporter in HEK293T). It is filed as cell-based, human. To be noted: for EC (maximum kinetin efficacy) / Emax: Homo sapiens, HEK-293T; for EC (maximum kinetin efficacy): HEK293T, read-out: ECk (compound concentration at which the maximum kinetin efficacy (200 μM) is reached). The method, then: As used herein, the expression “ECk” refers to the compound concentration at which the maximum kinetin efficacy (200 μM) is reached.
Splicing analysis was made possible by using an FD (familial dysautomonia) IKBKAP minigene which contained exon 19 through exon 21, including intervening introns, and also the T→C Thymine to cytosine transition located 6 base-pairs from the end of IKBKAP exon 20; See SEQ ID NO:3 for the complete sequence of plasmid pcDNA3.1/V5HisTOPO with Renilla-Familial Dysautonomia minigene-Firefly. Firefly luciferase (SEQ ID NO:14) was utilized as a splicing reporter, located downstream of exon 21, and Renilla luciferase (SEQ ID NO:13) was used as a control, located upstream of exon 19. The sequence of exon 19 is presented as SEQ ID NO:7; the Intron between Exon 19 and Exon 20 is SEQ ID NO:8; exon 20 is SEQ ID NO:9; the intron between […]; exon 21 is SEQ ID NO: 11, and the spliced sequence of exons 19-20-21 is SEQ ID NO:12. HEK293T cells were plated in a 6-well plate 24 hours prior to transfection. Transfection was carried out using a mixture of Opti-MEM (GIBCO ref. 31985), IKBKAP minigene, and Fugene HID (PROMEGA ref. E2311), incubated in DMEM media containing HEK293T cells at 37° C. The ratio of Opti-MEM, minigene, and Fugene was kept at approximately 9:1.5:1, with a total volume of 150 μL of transfection mixture applied per well.
After 4 hours of transfection, the cells were then plated in a 96-well plate coated with poly-L-lysine (SIGMA cat.P4707) for treatment scheduled 24 hours later. […] After 24 hours of treatment, cells were washed in the poly-L-lysine coated 96-well plate using PBS and subsequently harvested using Passive Lysis Buffer (Promega cat.E196). Cell lysate was transferred to a black and white 96-well plate and analyzed for splicing correction using a Glomax luminometer (PROMEGA GloMax® 96 Microplate Luminometer w/Dual Injectors cat.E6521) and Promega Dual Glo Firefly and Stop and Glo Renilla reagents (Cat.E196). The compound's ability to correct splicing and promote exon 20 inclusion was marked by an increase in Firefly signal. Renilla signal, which is independent of exon 20 inclusion, was used to correct for cell number. Using the ratio of Firefly to Renilla signal, a dose response curve was produced, which referenced kinetin and DMSO Firefly/Renilla ratios as positive and negative controls, respectively.
On the technique in general: In a reporter assay the amount or activity of a reporter protein is the signal.

[1] abbreviates: Firefly/Renilla ratio, 24 hours of treatment.
The mark [2] stands for this setting: max efficacy in Primary Assay, Firefly/Renilla ratio, kinetin and DMSO as positive and negative controls, 24 hours of treatment, read-out: Emax (%).
Setting [3] is: max efficacy, value marked (RT-PCR), footnote a: Firefly inhibitor, read-out: Emax (%) (RT-PCR).

Structures are written as SMILES. Where two headings read alike, the source gives them in different places.

A word on the Emax: it is the size of the effect at its maximum, as opposed to the concentration needed. With `CC(C)(C)OC(=O)N1CC(Oc2nc3c(NCc4ccncc4)nc(Cl)nc3[nH]2)C1` [(327)], the EC (maximum kinetin efficacy) under setting [1] is 4.64 µM. Also, the Emax under setting [2] was determined as 145%.

Turning to `CCCCOc1nc2c(NCc3nccs3)nc(Cl)nc2[nH]1` [(318)], the EC (maximum kinetin efficacy) under setting [1] came to 0.54 µM. The Emax under setting [2] was 186%.

Consider `Cc1cccc(CCNc2ncnc3[nH]cnc23)c1` [(25)], for which the EC (maximum kinetin efficacy) under setting [1] is 9.35 µM.

For `OCCn1ncc2c(NCc3ccncc3)nc(Cl)nc21` [(218)], under setting [1], the EC (maximum kinetin efficacy) turned out to be 21 µM. Further, the Emax under setting [2] amounted to 154%.

`Clc1nc(NCc2ccncc2Cl)c2cc[nH]c2n1` [(228)]: the EC (maximum kinetin efficacy) under setting [1] stood at 15.7 µM. Moreover, under setting [2], the Emax is 152%.

On to `COc1cccc(Nc2nc(Cl)nc3[nH]cnc23)c1` [(383)], for which, under setting [2], the Emax turned out to be 30.3%.

For the compound `CC(=O)Oc1c[nH]c2nc(Cl)nc(NCc3ccco3)c12` [(252)], the Emax under setting [2] came out at 43%.

As for `CC(=O)NCCOc1nc2c(NCc3nccs3)nc(Cl)nc2[nH]1` [(397)], the Emax under setting [2] worked out at 26.3%.

Turning to `Cn1cnc2c(NCc3ccco3)ncnc21` [(20)], the Emax under setting [2] was found to be 22%.

As for `O[C@@H]1C=C[C@H](n2ccc3c(NCc4ccco4)nc(Cl)nc32)C1` [(139)], the Emax under setting [3] is 52.2%.

Turning to `CNc1nc2c(NCc3ccncc3)nc(Cl)nc2[nH]1` [(244)], the EC (maximum kinetin efficacy) under setting [1] stood at 7.05 µM. Further, the maximal response (Emax) under setting [2] was determined as 150%.

Consider `Fc1nc(NCc2ccncc2)c2nc[nH]c2n1` [(371)], for which, under setting [2], the Emax came out at 82%.

In the case of `Clc1nc(NCc2ccco2)c2c(CN3CCCC3)c[nH]c2n1` [(173)], the Emax under setting [2] is 30%.

Regarding `Clc1nc(NCc2ccncc2)c2nc(OCC3CCC3)[nH]c2n1` [(307)], the EC (maximum kinetin efficacy) under setting [1] stood at 0.21 µM. Further, the Emax under setting [2] was 292%.

With `O=c1[nH]c2c(NCc3nccs3)nc(Cl)nc2n1C1CCCCO1` (stereo not drawn) [(344)], under setting [2], the Emax came out at 18.4%.

Turning to `CC(C)(C)OC(=O)N1Cc2nc(Cl)nc(NCc3ccco3)c2C1` [(508)], the Emax under setting [2] was 80%.

Turning to `COc1nc2c(NCc3cncs3)nc(Cl)nc2[nH]1` [(376)], the Emax under setting [2] is 23.5%.

Take `Clc1nc(NCc2cc3ccccc3o2)c2cc[nH]c2n1` [(163)]: the Emax under setting [2] is 35%.

In the case of `Clc1nc(NCc2ccno2)c2cc[nH]c2n1` [(178)], under setting [2], the Emax amounted to 76%.

As for `Fc1ccc(Nc2ncnc3[nH]cnc23)cc1` [(34)], the EC (maximum kinetin efficacy) under setting [1] was determined as 26.6 µM.

On to `CN(C)Cc1c[nH]c2nc(Cl)nc(NCc3ccco3)c12` [(180)], for which the Emax under setting [2] turned out to be 28%.

Take `c1coc(CNc2nc(C3CC3)nc3[nH]cnc23)c1` [(65)]: the Emax under setting [2] was 32%.

Turning to `N#Cc1cc2c(NCc3ccco3)nc(Cl)nc2[nH]1` [(223)], the maximum response (Emax) under setting [2] was 95%.

Regarding `CC(F)(F)COc1nc2c(NCc3ccco3)nc(Cl)nc2[nH]1` [(390)], the EC (maximum kinetin efficacy) under setting [1] worked out at 0.74 µM. In addition, under setting [2], the maximum response (Emax) was 201%.

With `CSc1nc(NCc2nccs2)n2ncnc2n1` [(342)], the Emax under setting [2] worked out at 16%.

In the case of `Clc1nc(NCc2cccnn2)c2cc[nH]c2n1` [(174)], under setting [2], the Emax stood at 37%.

For the compound `Cn1cnc2nc(Cl)nc(NCc3ccco3)c21` [(314)], the EC (maximum kinetin efficacy) under setting [1] turned out to be 2.31 µM. The Emax under setting [2] came to 198%.

For the compound `Clc1nc(NCc2nccs2)c2nc(OCC#Cc3ccccc3)[nH]c2n1` [(476)], the Emax under setting [2] amounted to 25.5%.

Take `CC(Nc1nc(Cl)nc2[nH]ccc12)c1nccs1` (stereo not drawn) [(364)]: under setting [2], the Emax stood at 18.2%.

On to `FC(F)COc1nc2c(NCc3ccco3)nc(Cl)nc2[nH]1` [(384)], for which the EC (maximum kinetin efficacy) under setting [1] came out at 1.08 µM. The Emax under setting [2] amounted to 152%.

In the case of `COc1nc2c(N(CCO)Cc3nccs3)nc(Cl)nc2[nH]1` [(386)], the Emax under setting [2] turned out to be 69.2%.

As for `CN(C)C(=O)c1cc2c(NCc3ccco3)nc(Cl)nc2[nH]1` [(195)], under setting [2], the Emax turned out to be 81%.

Consider `Clc1nc(NCc2ccncn2)c2nc[nH]c2n1` [(129)], for which the EC (maximum kinetin efficacy) under setting [1] came out at 5.6 µM. The maximal response (Emax) under setting [2] worked out at 169%.

Consider `O=C(NCCO)c1cc2c(NCc3ccco3)nc(Cl)nc2[nH]1` [(221)], for which the Emax under setting [2] came out at 86%.

In the case of `Clc1nc(NCc2cccnc2)c2cc[nH]c2n1` [(355)], under setting [2], the Emax is 26%.

Regarding `CNC(=O)c1nc2c(NCc3ccncn3)nc(Cl)nc2[nH]1` [(258)], the EC (maximum kinetin efficacy) under setting [1] turned out to be 15.8 µM. The Emax under setting [2] is 165%.

`FC(F)(F)c1nc(NCc2ccco2)c2nc[nH]c2n1` [(44)]: under setting [2], the maximal response (Emax) is 19%.

As for `Clc1nc(NCc2ccncn2)c2nc(OCC3CCC3)[nH]c2n1` [(326)], the EC (maximum kinetin efficacy) under setting [1] was 0.07 µM. Further, under setting [2], the Emax was 287%.

Consider `Clc1nc(NCc2ccno2)c2nc[nH]c2n1` [(175)], for which the Emax under setting [2] amounted to 29%.

With `Cc1nc2c(NCc3ccco3)c(C(N)=O)cnc2[nH]1` [(171)], under setting [2], the Emax was 48%.

Take `CC(C)(C)COc1nc2c(NCc3ccco3)nc(Cl)nc2[nH]1` [(478)]: the maximum response (Emax) under setting [2] was determined as 84.1%.

With `N#Cc1c[nH]c2nc(Cl)nc(NCc3ccncc3)c12` [(151)], the Emax under setting [2] turned out to be 73%.

In the case of `Cc1ccoc1CNc1ncnc2[nH]cnc12` [(54)], the Emax under setting [2] was determined as 13%.

Consider `Clc1nc(NCc2nccs2)c2nc(OC3CCC3)[nH]c2n1` [(289)], for which, under setting [1], the EC (maximum kinetin efficacy) is 0.87 µM. Also, under setting [2], the Emax was determined as 128%.

Regarding `Fc1cccnc1CNc1nc(Cl)nc2[nH]ccc12` [(495)], under setting [2], the Emax was 13.9%.

Consider `Clc1nc(NCc2cccs2)c2[nH]cnc2n1` [(456)], for which the Emax under setting [2] was 52.3%.

For the compound `Clc1nc(NCc2ccncc2)c2nc(C3CCC3)[nH]c2n1` [(234)], the EC (maximum kinetin efficacy) under setting [1] amounted to 19.9 µM. Moreover, the Emax under setting [2] worked out at 94%.

For `FC(F)(F)c1ccc(CCNc2ncnc3[nH]cnc23)cc1` [(26)], under setting [2], the Emax worked out at 66%.

As to `O=c1cc(CNc2nc(Cl)nc3[nH]cnc23)cc[nH]1` [(255)], under setting [2], the Emax is 42%.

Regarding `Clc1nc(NCc2ccco2)c2ncn(Cc3ccccn3)c2n1` [(79)], the maximal effect (Emax) under setting [2] was 43%.

With `Cc1cc2c(NCc3ccco3)nc(Cl)nc2[nH]1` [(115)], the EC (maximum kinetin efficacy) under setting [1] was 5.92 µM. In addition, the Emax under setting [2] came out at 174%.

Regarding `Cn1cnc2nc(Cl)nc(NCc3nccs3)c21` [(304)], the EC (maximum kinetin efficacy) under setting [1] turned out to be 4.14 µM. For the same compound, the Emax under setting [2] was 166%.

With `COCCCOc1nc2c(NCc3ccncc3)nc(Cl)nc2[nH]1` [(291)], the EC (maximum kinetin efficacy) under setting [1] was found to be 3.47 µM. Also, the Emax under setting [2] was 165%.

Consider `COc1nc2c(NCc3ccco3)nc(Cl)nc2n1CCO` [(297)], for which the EC (maximum kinetin efficacy) under setting [1] was found to be 4.09 µM. The Emax under setting [2] was 150%.

Turning to `CN(C)CCn1ccc2c(NCc3ccco3)nc(Cl)nc21` [(206)], the Emax under setting [2] is 27%.

Turning to `OCCCn1ccc2c(NCc3ccco3)nc(Cl)nc21` [(108)], the Emax under setting [3] turned out to be 172%.

As to `Clc1nc(NCc2ccco2)c2nc(OC3CCC3)[nH]c2n1` [(259)], the EC (maximum kinetin efficacy) under setting [1] stood at 0.38 µM. Besides, under setting [2], the Emax is 109%.

In the case of `COc1nc2c(N(C)Cc3nccs3)nc(Cl)nc2[nH]1` [(351)], the Emax under setting [2] was 22%.

Consider `Clc1nc(NCc2ccco2)c2nc(OCCC3CC3)[nH]c2n1` [(489)], for which the EC (maximum kinetin efficacy) under setting [1] stood at 1.21 µM. In addition, under setting [2], the Emax is 131%.

In the case of `Cc1ccccc1CNc1ncnc2[nH]cnc12` [(14)], the Emax under setting [2] was found to be 53%.

Consider `FC(F)(F)c1cccc(Nc2ncnc3[nH]cnc23)c1` [(13)], for which, under setting [2], the Emax came to 16%.

Take `OCCCOc1nc2c(NCc3nccs3)nc(Cl)nc2[nH]1` [(276)]: the EC (maximum kinetin efficacy) under setting [1] stood at 1.13 µM. Moreover, under setting [2], the Emax came to 188%.

On to `Clc1ccccc1CNc1[nH]cnc2ncnc1-2` [(426)], for which, under setting [2], the Emax worked out at 59%.

As for `Cc1[nH]c2nc(Cl)nc(NCc3ccco3)c2c1Br` [(143)], the Emax under setting [2] was 24%.

Consider `OCc1c[nH]c2nc(Cl)nc(NCc3ccco3)c12` [(109)], for which the Emax (max efficacy, Firefly only, footnote c: Renilla interference/Firefly only, read-out: Emax (%) Firefly only) turned out to be 128%. Further, the “ECk, Firefly only” value (Renilla interference/Firefly only (footnote c)) worked out at 12.16 µM⁻¹.

As for `C[C@@H](C#N)n1ccc2c(NCc3ccco3)nc(Cl)nc21` [(216)], the Emax under setting [2] was determined as 16%.

As to `CCOc1nc2c(NCc3ccncc3)nc(Cl)nc2[nH]1` [(273)], the EC (maximum kinetin efficacy) under setting [1] is 0.62 µM. Moreover, the Emax under setting [2] is 254%.
